Data as given in patent US11173173B2, “Methods for treating chemoresistant cancer-initiating cells” (UNIVERSITY OF CONNECTICUT, priority 2015, dated 2021).

Tested on: BM cells isolated from leukemic Pten:β-cat^Act double mutants (LSCs, HSPCs)
Experiment: In vitro treatment of BM cells from leukemic mice, flow cytometry for LSCs and HSPCs
Assay type: cell-based, mouse
Settings: 11, 33 or 100 nM, 72 hours
Procedure: Doxorubicin, 0105375, and thioguanosine were added to 11, 33 or 100 nM and cultured for 72 hours and analyzed by flow cytometry for LSCs (a) and HSPCs (b) as in FIG. 1. Fold change before and after culture for each population is indicated relative to equivalent vehicle control concentrations.
Bone marrow cells from leukemic mice at 8 weeks post-induction were cultured overnight at 5-20×10^4 cells per well in 96-well U-bottom tissue culture plates (Becton, Dickinson and Company; Cat. No. 353077) in HSC expansion media in low O2 conditions as previously described (Perry, J. M. et al. Cooperation between both Wnt/{beta}-catenin and PTEN/PI3K/Akt signaling promotes primitive hematopoietic stem cell self-renewal and expansion. Genes Dev 25, 1928-1942 (2011)). Doxorubicin (Sigma; D1515), 0105375 ((S)-N-(2-bromobenzyl)-N-(1-hydroxy-3-phenylpropan-2-yl)ethenesulfonamide, University of Kansas CMLD compound), or Thioguanosine was mixed with HSC expansion media and added to the cultures to obtain final concentrations of 11, 33, 100 nM. Equivalent amounts of DMSO alone (vehicle control) were added to parallel cultures for comparison. Half-media changes were performed approximately every 24 hrs. Cultures were analyzed after 72 hrs exposure to the indicated drug.

SMILES: COc1cccc2c1C(=O)c1c(O)c3c(c(O)c1C2=O)C[C@@](O)(C(=O)CO)C[C@@H]3O[C@H]1C[C@H](N)[C@H](O)[C@H](C)O1 [DXR, doxorubicin]
- HSPCs after culture, relative to vehicle: not HSPCs
- LSCs after culture, relative to vehicle: significantly reduced LSCs
